Data on 22 molecules can be found in PubChem BioAssay AID264 (DTP/NCI, 2004).

Structures are written as SMILES. Several values for one entry are separate records, joined by “and”; a condition that tells them apart may be missing. Equal entries are not always repeated. Records with an inconclusive call do not appear. Bridge positions count the residues as written; N and C are the ends. Square brackets hold non-standard residues; d marks the D form. Peptide text beside a SMILES is read from it. I, II: the chains in the order shown. * marks the point of attachment. Quinoxaline2carbonyl = O=C(c1cnc2ccccc2n1)*; NMeV = CN[CH](C(=O)O)C(C)C; NMeC = CN[CH](CS)C(=O)O

In this assay the test system is nude mice, LX-1 lung xenograft intrarenal, tumor weight T/C. Kind of assay: NCI In Vivo Anticancer Drug Screen. Data for tumor model Human Lung LX-1 Xenograft (intrarenal inoculation) in NU/NU Swiss (nude) mice. The conditions noted are these: endpoint: mean tumor weight change, higher = larger tumour. The procedure:
The antitumor activity of compounds was measured in mice bearing transplantable tumors. Survival or tumor size were measured and the results are expressed as the measurement made in the treated group (T) divided by the measurement made in the vehicle treated control group (C). The tumor model used in this assay is Human Lung LX-1 Xenograft (intrarenal inoculation) in NU/NU Swiss (nude) mice

Setting [1] is: dose: 300.0 mg/kg/injection, schedule: Q04DX003 (sc), vehicle: Klucel (hydroxypropylcellulose) (HPC).
Setting [2] is: dose: 600.0 mg/kg/injection, schedule: Q04DX003 (sc), vehicle: Klucel (hydroxypropylcellulose) (HPC).
[3] abbreviates: dose: 1200.0 mg/kg/injection, schedule: Q04DX003 (sc), vehicle: Klucel (hydroxypropylcellulose) (HPC).
[4] abbreviates: dose: 300.0 mg/kg/injection, schedule: Q04DX003 (sc), vehicle: saline with Tween-80.
Setting [5] is: dose: 600.0 mg/kg/injection, schedule: Q04DX003 (sc), vehicle: saline with Tween-80.
Where [6] appears, read: dose: 1200.0 mg/kg/injection, schedule: Q04DX003 (sc), vehicle: saline with Tween-80.
Where [7] appears, read: dose: 50.0 mg/kg/injection, schedule: Q01DX010 (sc), vehicle: saline with Tween-80.
Setting [8] is: dose: 75.0 mg/kg/injection, schedule: Q04DX003 (sc), vehicle: saline.
Setting [9] is: dose: 100.0 mg/kg/injection, schedule: Q04DX003 (sc), vehicle: saline with Tween-80.
Where [10] appears, read: dose: 200.0 mg/kg/injection, schedule: Q04DX003 (sc), vehicle: saline with Tween-80.
Where [11] appears, read: dose: 400.0 mg/kg/injection, schedule: Q04DX003 (sc), vehicle: saline with Tween-80.

As for `CSC1SCC2C(=O)N(C)C(C(C)C)C(=O)OCC(NC(=O)c3cnc4ccccc4n3)C(=O)NC(C)C(=O)N(C)C1C(=O)N(C)C(C(C)C)C(=O)OCC(NC(=O)c1cnc3ccccc3n1)C(=O)NC(C)C(=O)N2C` (stereo not drawn), the T/C runs as follows: (dose: 15.0 micrograms/kg/injection, schedule: Q01DX010 (sc), vehicle: saline) 97 % of control; (dose: 30.0 micrograms/kg/injection, schedule: Q01DX010 (sc), vehicle: saline) 71 % of control; (dose: 60.0 micrograms/kg/injection, schedule: Q01DX010 (sc), vehicle: saline) 48 % of control; (dose: 120.0 micrograms/kg/injection, schedule: Q01DX010 (sc), vehicle: saline) 36 % of control; (dose: 240.0 micrograms/kg/injection, schedule: Q01DX010 (sc), vehicle: saline) 65 % of control.

Regarding `C[C@]12C=CC(=O)C=C1CC[C@@H]1[C@@H]2C(=O)C[C@@]2(C)[C@H]1CC[C@]2(O)C(=O)CO`, the T/C was 50 % of control under setting [1]; 56 % of control under setting [2]; 47 % of control under setting [3]; 35 % of control (dose: 2400.0 mg/kg/injection, schedule: Q04DX003 (sc), vehicle: Klucel (hydroxypropylcellulose) (HPC)).

With `COc1cc(NCc2ccc3nc(N)nc(N)c3c2C)cc(OC)c1OC`, the T/C runs as follows: (dose: 1.25 mg/kg/injection, schedule: Q01DX010 (sc), vehicle: sodium bicarbonate) 76 % of control; (dose: 2.5 mg/kg/injection, schedule: Q01DX010 (sc), vehicle: sodium bicarbonate) 81 % of control; (dose: 5.0 mg/kg/injection, schedule: Q01DX010 (sc), vehicle: sodium bicarbonate) 36 % of control; (dose: 75.0 mg/kg/injection, schedule: Q04DX003 (sc), vehicle: water) 77 % of control; (dose: 150.0 mg/kg/injection, schedule: Q04DX003 (sc), vehicle: water) 67 % of control.

With `O=[N+]([O-])c1ccc(N2CCOCC2)c2c1no[n+]2[O-]`, the T/C by setting is: (dose: 150.0 mg/kg/injection, schedule: Q04DX003 (sc), vehicle: saline with Tween-80) 101 % of control; under setting [4], 57 % of control; under setting [5], 77 % of control; under setting [6], 98 % of control.

Take `COc1cccc2c1C(=O)c1c(O)c3c(c(O)c1C2=O)CC(O)(/C(C)=N/NC(=O)CCCCC(=O)N/N=C(\C)C1(O)Cc2c(O)c4c(c(O)c2C(OC2CC(N)C(O)C(C)O2)C1)C(=O)c1c(OC)cccc1C4=O)CC3OC1CC(N)C(O)C(C)O1` (stereo not drawn): the T/C (dose: 12.5 mg/kg/injection, schedule: Q04DX003 (sc), vehicle: water) was 28 % of control and the T/C (dose: 100.0 mg/kg/injection, schedule: Q04DX003 (sc), vehicle: water) is 19 % of control.

As for `O=CC=O`, the T/C under setting [7] was 82 % of control and the T/C (dose: 100.0 mg/kg/injection, schedule: Q01DX010 (sc), vehicle: saline with Tween-80) is 61 % of control.

Regarding `Cc1[nH]c(=O)[nH]c(=O)c1N(CCF)CCCl`, where the note is “dose: 40.0 mg/kg/injection, schedule: Q01DX010 (sc), vehicle: Klucel (hydroxypropylcellulose) (HPC)”, the T/C was 19 % of control and 34 % of control and 36 % of control.

As for `O=NN(CCCl)C(=O)Oc1ccc(OC(=O)N(CCCl)N=O)cc1`, the T/C reads like this: under setting [1], 110 % of control; under setting [2], 70 % of control; under setting [3], 49 % of control.

As to `CN=C(N)N/N=C(\c1ccccc1)c1ccc(Br)cc1`, the T/C (dose: 12.5 mg/kg/injection, schedule: Q04DX003 (sc), vehicle: saline with Tween-80) was 88 % of control; the T/C (dose: 25.0 mg/kg/injection, schedule: Q04DX003 (sc), vehicle: saline with Tween-80) was 122 % of control; the T/C (dose: 50.0 mg/kg/injection, schedule: Q04DX003 (sc), vehicle: saline with Tween-80) is 103 % of control.

For `COc1nc(=O)n(C2C=CC(=O)O2)cc1F` (stereo not drawn), the T/C is 66 % of control (dose: 25.0 mg/kg/injection, schedule: Q04DX003 (sc), vehicle: Klucel (hydroxypropylcellulose) (HPC)); 54 % of control (dose: 50.0 mg/kg/injection, schedule: Q04DX003 (sc), vehicle: Klucel (hydroxypropylcellulose) (HPC)); 37 % of control (dose: 100.0 mg/kg/injection, schedule: Q04DX003 (sc), vehicle: Klucel (hydroxypropylcellulose) (HPC)).

As to `CS(=O)(=O)OCCCNCCCOS(C)(=O)=O`, the T/C under setting [8] was 71 % of control.

For `C[C@@]12C(=O)OC(=O)[C@]1(C)[C@H]1CC[C@@H]2O1`, the T/C is, setting by setting: (dose: 1.25 mg/kg/injection, schedule: Q04DX003 (sc), vehicle: Klucel (hydroxypropylcellulose) (HPC)) 113 % of control; (dose: 2.5 mg/kg/injection, schedule: Q04DX003 (sc), vehicle: Klucel (hydroxypropylcellulose) (HPC)) 86 % of control.

Regarding `O=c1cc(-c2ccccc2)[nH]c2c1CCCC2`, the T/C reads like this: under setting [4], 114 % of control; under setting [5], 113 % of control; under setting [6], 113 % of control; (dose: 2400.0 mg/kg/injection, schedule: Q04DX003 (sc), vehicle: saline with Tween-80) 106 % of control.

Turning to `O=C1C=CN(C2OC(CO)C(O)C2O)C(=O)C1` (stereo not drawn), the T/C was 65 % of control (dose: 50.0 mg/kg/injection, schedule: Q01DX010 (sc), vehicle: saline) and 21 % of control (dose: 100.0 mg/kg/injection, schedule: Q01DX010 (sc), vehicle: saline).

For `CCc1ccc(C2=C(O)C(=O)C(c3ccc(CC)cc3)=C(O)C2=O)cc1`, the T/C was 83 % of control under setting [9]; 100 % of control under setting [10]; 64 % of control under setting [11]; 56 % of control (dose: 800.0 mg/kg/injection, schedule: Q04DX003 (sc), vehicle: saline with Tween-80).

Consider `O/N=C/c1ccccc1O.O/N=C/c1ccccc1O.[Cu]`, for which the T/C runs as follows: under setting [9], 72 % of control; under setting [10], 67 % of control and 72 % of control; under setting [11], 93 % of control.

For `Cc1ncc([N+](=O)[O-])n1CCSC(N)=O`, the T/C under setting [7] was 90 % of control.

As to `Cc1ccc(C(=O)[O][Hg][CH2]C2COC([CH2][Hg][O]C(=O)c3ccc(C)cc3)CO2)cc1` (stereo not drawn), the T/C reads like this: (dose: 25.0 mg/kg/injection, schedule: Q01DX010 (sc), vehicle: Klucel (hydroxypropylcellulose) (HPC)) 89 % of control; (dose: 50.0 mg/kg/injection, schedule: Q01DX010 (sc), vehicle: Klucel (hydroxypropylcellulose) (HPC)) 58 % of control; (dose: 100.0 mg/kg/injection, schedule: Q01DX010 (sc), vehicle: Klucel (hydroxypropylcellulose) (HPC)) 112 % of control; (dose: 200.0 mg/kg/injection, schedule: Q01DX010 (sc), vehicle: Klucel (hydroxypropylcellulose) (HPC)) 63 % of control.

Take `CC1NC(=O)C(NC(=O)c2cnc3ccccc3n2)COC(=O)C(C(C)C)N(C)C(=O)C2CSSCC(C(=O)N(C)C(C(C)C)C(=O)OCC(NC(=O)c3cnc4ccccc4n3)C(=O)NC(C)C(=O)N2C)N(C)C1=O` (stereo not drawn) (I: Quinoxaline2carbonyl-SA[NMeC][NMeV] / II: Quinoxaline2carbonyl-SA[NMeC][NMeV]; ester I:1-II:C, I:C-II:1; disulfide I:3-II:3; configuration not given here): the T/C is 104 % of control (dose: 100.0 micrograms/kg/injection, schedule: Q04DX003 (sc), vehicle: Klucel (hydroxypropylcellulose) (HPC)); 83 % of control (dose: 200.0 micrograms/kg/injection, schedule: Q04DX003 (sc), vehicle: Klucel (hydroxypropylcellulose) (HPC)); 54 % of control (dose: 400.0 micrograms/kg/injection, schedule: Q04DX003 (sc), vehicle: Klucel (hydroxypropylcellulose) (HPC)).

On to `CCCCCCCCCCCCCCCCP(=O)(OCCOCCCCCC)OCCOCCCCCC`, for which the T/C reads like this: under setting [8], 114 % of control; (dose: 150.0 mg/kg/injection, schedule: Q04DX003 (sc), vehicle: saline) 91 % of control; (dose: 300.0 mg/kg/injection, schedule: Q04DX003 (sc), vehicle: saline) 92 % of control.

Consider `CNC(=O)c1cccc2c(Nc3ccc(NS(C)(=O)=O)cc3OC)c3cccc(C)c3nc12`, for which the T/C (dose: 50.0 mg/kg/injection, schedule: Q04DX003 (sc), vehicle: water) was 69 % of control.

Turning to `CN(Cc1cnc2nc(N)nc(N)c2n1)c1ccc(C(=O)N[C@@H](CCC(=O)O)C(=O)O)cc1`, the T/C by setting is: (dose: 0.5 mg/kg/injection, schedule: Q01DX010 (sc), vehicle: sodium bicarbonate) 74 % of control; (dose: 1.0 mg/kg/injection, schedule: Q01DX010 (sc), vehicle: sodium bicarbonate) 87 % of control; (dose: 2.0 mg/kg/injection, schedule: Q01DX010 (sc), vehicle: sodium bicarbonate) 18 % of control.
